According to PubChem BioAssay (NCI):
Where “and” joins values, the source holds several entries; their conditions need not be identical. Identical values can stand only once.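 Dose response: 5 concentrations. Exposure: 48 h. Format: 96-well plates. Endpoint: linear interpolation; highest concentration if not reached. GI50 = concentration required for 50% inhibition of growth. At the TGI there is no net growth.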

How the values were obtained:
Experiment in all cases: DTP human tumour cell line panel, 48 h
[1] = test system: EKVX NSCLC
[2] = test system: HL-60(TB) leukemia
[3] = test system: OVCAR-5 ovarian
[4] = test system: PC-3 prostate
[5] = test system: RPMI-8226 leukemia
[6] = test system: SF-268 CNS
[7] = test system: SF-295 CNS
[8] = test system: SK-MEL-2 melanoma
[9] = test system: SK-OV-3 ovarian
[10] = test system: UO-31 renal
[11] = test system: CCRF-CEM leukemia

| SMILES | TGI [1] | TGI [2] | TGI [3] | TGI [4] | TGI [5] | TGI [6] | TGI [7] | TGI [8] | TGI [9] | TGI [10] | TGI [11] | GI50 [4] | GI50 [9] | GI50 [11] | GI50 [1] | GI50 [2] | GI50 [3] | GI50 [6] | GI50 [7] | GI50 [10] |
| --- | --- | --- | --- | --- | --- | --- | --- | --- | --- | --- | --- | --- | --- | --- | --- | --- | --- | --- | --- | --- |
| COc1ccc(CC2COc3cc(OC)cc(OC)c3C2=O)cc1 (stereo not given) | 77.8 µM | > 100 µM | 76.4 µM | > 100 µM | 40.5 µM | > 100 µM | 48.3 µM | > 100 µM | 56.6 µM | > 100 µM |  |  |  |  |  |  |  |  |  |  |
| CC1=C2C(O)C(C(C)C(=O)N(C)C)CCC2(C)C=CC1=O (stereo not given) | > 100 µM | > 100 µM | > 100 µM |  | > 100 µM | > 100 µM | > 100 µM | > 100 µM | > 100 µM | > 100 µM | > 100 µM |  |  |  |  |  |  |  |  |  |
| CN(C)/C=C/C(=CC=[N+](C)C)/C=C/N(C)C |  | > 100 µM | > 100 µM |  | > 100 µM | > 100 µM | > 100 µM | > 100 µM | > 100 µM | > 100 µM | > 100 µM |  |  |  |  |  |  |  |  |  |
| CCC1C[N+]23CCc4c([nH]c5ccccc45)C2CC1CC3 (stereo not given) | > 100 µM |  | > 100 µM |  | > 100 µM | > 100 µM | > 100 µM | > 100 µM | > 100 µM | > 100 µM | > 100 µM |  |  |  |  |  |  |  |  |  |
| O=C1C=C(C2OC(CO)C(O)C2O)C(=O)N1 (stereo not given) | > 100 µM | > 100 µM | > 100 µM |  | > 87.8 µM | > 100 µM | > 100 µM | > 100 µM | > 100 µM | > 100 µM | > 89.5 µM |  |  |  |  |  |  |  |  |  |
| Cc1n(CC(C)C)c2c([n+]1C)C(=O)c1ccccc1C2=O | 0.649 µM | 0.437 µM | 0.824 µM | 0.337 µM | 8.37 µM | 0.155 µM | 1.65 µM | 0.524 µM | 2.2 µM | 3.55 µM | 27 µM |  |  |  |  |  |  |  |  |  |
| Cc1ccc2c(ccc(/C=C/c3ccc(O)c4ncccc34)[n+]2C)c1 | 76.6 µM | > 100 µM | 53.3 µM | > 49.8 µM | 70.2 µM | 22 µM | 34.9 µM | 36.3 µM | 34.3 µM | > 49.3 µM | > 70 µM |  |  |  |  |  |  |  |  |  |
| N#C[S-].[La+3].c1cnc2c(c1)ccc1cccnc12.c1cnc2c(c1)ccc1cccnc12.c1cnc2c(c1)ccc1cccnc12 | 15.5 µM | 2.47 µM | 12.4 µM |  | > 100 µM | 18.9 µM | 7.94 µM |  | 14.1 µM | 10.5 µM | 2.58 µM |  |  |  |  |  |  |  |  |  |
| CCOC(=O)Nc1cc2c(c(N)n1)N=C(c1ccc(OC)cc1)CN2 | > 100 µM | 0.00595 µM | 21.8 µM | 0.0521 µM and 0.48 µM |  | > 100 µM |  | 0.0838 µM | 18.7 µM |  |  | 0.00142 µM | 0.0475 µM |  |  |  |  |  |  |  |
| Cc1ccc(S(=O)(=O)Nc2cccc3c(=O)[nH]cnc23)cc1 | > 100 µM | > 100 µM | > 100 µM |  | 97.7 µM | > 100 µM | > 100 µM | > 100 µM | > 100 µM | > 100 µM | > 100 µM |  |  |  |  |  |  |  |  |  |
| CCOP(=Nc1ccc(N(C)C)cc1)(OCC)OCC | > 100 µM |  | > 100 µM | > 100 µM | > 100 µM | > 100 µM | > 100 µM | > 100 µM | > 100 µM | > 100 µM |  |  |  |  |  |  |  |  |  |  |
| CC(=O)C(C(c1ccccc1)N1CCOCC1)N1CCOCC1 (stereo not given) | > 100 µM | > 100 µM | > 100 µM | > 100 µM | > 100 µM | > 100 µM | > 100 µM | > 100 µM | > 100 µM | > 100 µM | > 100 µM |  |  |  |  |  |  |  |  |  |
| CC1(C)[C@@H]2CC[C@]1(C)[C@H](OC(=O)CSC#N)C2 | > 100 µM |  | > 100 µM | > 100 µM |  | > 100 µM | > 100 µM | > 100 µM | > 100 µM | > 100 µM |  |  |  |  |  |  |  |  |  |  |
| O=S(=O)(O)c1ccc(N=Nc2ccc3c(S(=O)(=O)O)cccc3c2O)c2ccccc12 | > 100 µM |  | > 100 µM | > 100 µM | > 100 µM | > 100 µM | > 100 µM | > 100 µM | > 100 µM | > 100 µM |  |  |  |  |  |  |  |  |  |  |
| Cc1cccc(Cl)c1NCC(O)CN1CCN(C)CC1 (stereo not given) | > 100 µM |  | > 100 µM | > 100 µM |  | > 100 µM | > 100 µM | > 100 µM |  | > 100 µM | > 100 µM |  |  |  |  |  |  |  |  |  |
| COC1OC(CS(=O)(=O)O)C(O)C(O)C1O (stereo not given) |  | > 100 µM | > 100 µM | > 100 µM | > 100 µM |  | > 100 µM | > 100 µM | > 100 µM | > 100 µM | > 100 µM |  |  |  |  |  |  |  |  |  |
| C=C1C(=O)OC2/C=C(\C(=O)O)CC/C=C(\C)CC(OC(=O)/C=C(\C)CC)C12 (stereo not given) | 59.3 µM | > 100 µM | 26.6 µM |  | > 100 µM | 30.6 µM | 31.3 µM | 28.7 µM | 37.9 µM | 41.9 µM | > 100 µM |  |  |  |  |  |  |  |  |  |
| COc1cc2c(cc1O)c(O)cc1c3cc(OC)c(OC)cc3c[n+](C)c21 | > 100 µM |  | > 100 µM | > 100 µM | > 100 µM | > 100 µM | > 100 µM | > 100 µM | > 100 µM | > 100 µM | > 100 µM |  |  |  |  |  |  |  |  |  |
| CCCC(C)c1ccc(OCCCCCCN2CCNCC2)cc1 (stereo not given) | 6.63 µM | 3.54 µM | 7.9 µM | 4.94 µM |  | 9.89 µM | 3.44 µM |  | 7.12 µM | 20.3 µM | 7.46 µM | 2.02 µM | 2.57 µM | 2.44 µM | 2.34 µM | 1.75 µM | 2.73 µM | 2.97 µM | 1.82 µM | 4.32 µM |
| CN(C)CCNC(=O)c1cccc2c(=O)c3ccccc3oc12 | > 86.9 µM | > 90.6 µM | > 82.9 µM |  | > 87.1 µM | > 100 µM | 98.9 µM | 98.9 µM | > 100 µM | 55 µM | > 100 µM |  |  |  |  |  |  |  |  |  |
| O=C(c1ccccc1)c1ccc2n[se]nc2c1 | > 100 µM | 25.9 µM | > 100 µM |  | > 100 µM | > 100 µM | 37 µM | > 100 µM | > 100 µM | > 100 µM | > 100 µM |  |  |  |  |  |  |  |  |  |
